Test results as given in patent US7015228B2, “4-amino-2-(2-pyridyl)pyrimidines as microbicidal active substances” (Ciba Specialty Chemicals Corporation, priority 2001, dated 2006).
Converted amounts (≈) assume the structure as drawn.

Tests used:
Type in all cases: cell-based
[1] = test system: Escherichia coli NCTC 8196; test: Minimum inhibitory concentration (MIC) in microtitre plates; conditions: for Minimum inhibitory concentration (MIC) E. coli: Table 7, 48 hours at 37° C., MIC = ≦20% growth compared to control; for Minimum inhibitory concentration (MIC) E. coli NCTC 8196: Table 8, * = significant inhibition of growth, but not complete inhibition
How it was run: (§1)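 Compounds in DMSO, 1:2 dilution series; bacteria at 1–5×10^6 CFU/ml diluted 1:100 in CASO broth. Incubation 48 h at 37° C, growth read as OD 620 nm. MIC is the lowest concentration giving ≤20% growth relative to control; duplicates.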

[2] = test system: Staphylococcus hominis DMS 20328; test: as above; conditions: Table 7; 48 hours at 37° C.; MIC = ≦20% growth compared to control
How it was run: as §1

[3] = test system: Aspergillus niger ATCC 6275; test: Minimum inhibitory concentration (MIC), further microorganisms; conditions: Table 8; * = significant inhibition of growth, but not complete inhibition
How it was run: (§2)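 Broth microdilution in DMSO, 1:2 series; inocula adjusted to 1–5×10^6 CFU/ml then diluted 1:100 in CASO broth (bacteria, yeast) or Sabouraud 2% glucose broth (mould). Incubation 48 h at 37° C or 5 days at 28° C; MIC = lowest concentration giving ≦20% growth versus control by OD 620 nm.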

[4] = test system: Candida albicans ATCC 10231; test: as above; conditions: Table 8; * = significant inhibition of growth, but not complete inhibition
How it was run: as §2

[5] = test system: Enterococcus hirae ATCC 10541; test: as above; conditions: Table 8; * = significant inhibition of growth, but not complete inhibition
How it was run: as §2

[6] = test system: Epidermophyton floccosum DSM 10709; test: as above; conditions: Table 8; * = significant inhibition of growth, but not complete inhibition
How it was run: as §2

[7] = test system: Klebsiella pneumonia ATCC 4352; test: as above; conditions: Table 8; * = significant inhibition of growth, but not complete inhibition
How it was run: as §2

[8] = test system: Micrococcus luteus ATCC 9341; test: as above; conditions: Table 8; * = significant inhibition of growth, but not complete inhibition
How it was run: as §2

[9] = test system: Pseudomonas aeruginosa CIP A-22; test: as above; conditions: Table 8
How it was run: as §2

[10] = test system: S. epidermidis ATCC 12228; test: as above; conditions: Table 8; * = significant inhibition of growth, but not complete inhibition
How it was run: as §2

[11] = test system: Salmonella choleraesuis ATCC 10708; test: as above; conditions: Table 8
How it was run: as §2

[12] = test system: Staphylococcus aureus ATCC 9144; test: as above; conditions: Table 8; * = significant inhibition of growth, but not complete inhibition
How it was run: as §2

[13] = test system: Trichophyton mentagrophytes ATCC 9533; test: as above; conditions: Table 8; * = significant inhibition of growth, but not complete inhibition
How it was run: as §2

SMILES	Minimum inhibitory concentration (MIC) E. coli [1] [µg/mL]	Minimum inhibitory concentration (MIC) E. coli NCTC 8196 [1] [µg/mL]	Minimum inhibitory concentration (MIC) S. hominis [2] [µg/mL]	Minimum inhibitory concentration (MIC) Aspergillus niger ATCC 6275 [3]	Minimum inhibitory concentration (MIC) Candida albicans ATCC 10231 [4]	Minimum inhibitory concentration (MIC) Enterococcus hirae ATCC 10541 [5] [µg/mL]	Minimum inhibitory concentration (MIC) Epidermophyton floccosum DSM 10709 [6]	Minimum inhibitory concentration (MIC) Klebsiella pneumonia ATCC 4352 [7] [µg/mL]	Minimum inhibitory concentration (MIC) Micrococcus luteus ATCC 9341 [8] [µg/mL]	Minimum inhibitory concentration (MIC) Pseudomonas aeruginosa CIP A-22 [9] [µg/mL]	Minimum inhibitory concentration (MIC) S. epidermidis ATCC 12228 [10]	Minimum inhibitory concentration (MIC) Staphylococcus aureus ATCC 9144 [12]	Minimum inhibitory concentration (MIC) Trichophyton mentagrophytes ATCC 9533 [13]	Minimum inhibitory concentration (MIC) Salmonella choleraesuis ATCC 10708 [11] [µg/mL]
COCCc1cc(NCCCCCCCCCCCCN)nc(-c2ccccn2)n1 [compound 79]	20 (≈ 48.4 µM)	60 (≈ 145 µM)	10 (≈ 24.2 µM)	>60 µg/mL	*30 μg/mL	>60	>60 µg/mL	>60	60 (≈ 145 µM)	>60	30 µg/mL (≈ 72.5 µM)	*60 μg/mL	>60 µg/mL	>60
CCCCCCCCCCCCCCCNc1nc(-c2ccccn2)nc(C)c1CC [compound 90]	120 (≈ 283 µM)	>60	30 (≈ 70.6 µM)	>120 µg/mL	*60 μg/mL	30 (≈ 70.6 µM)	60 µg/mL (≈ 141 µM)	>60	15 (≈ 35.3 µM)	>60	*30 μg/mL	*30 μg/mL	>120 µg/mL	>60
CCCCCCCCCCCNc1cc(C)nc(-c2ccccn2)n1 [compound 92]	>120	>120	3.75 (≈ 11 µM)	*60 μg/mL	15 µg/mL (≈ 44.1 µM)	3.75 (≈ 11 µM)	15 µg/mL (≈ 44.1 µM)	120 (≈ 352 µM)	<0.5	>120	*1.9 μg/mL	3.75 µg/mL (≈ 11 µM)	15 µg/mL (≈ 44.1 µM)	>120
CCCCCCCCCCCCCCCNc1cc(C)nc(-c2ccccn2)n1 [compound 93]	>120	>120	7.5 (≈ 18.9 µM)	>60 µg/mL	*120 μg/mL	15 (≈ 37.8 µM)	>60 µg/mL	>120	1.9 (≈ 4.79 µM)	>120	7.5 µg/mL (≈ 18.9 µM)	15 µg/mL (≈ 37.8 µM)	>60 µg/mL	>120
CCCCCCCCCCCCCCCNc1cc(C(C)C)nc(-c2ccccn2)n1 [compound 99]	>120	>60	15 (≈ 35.3 µM)	>60 µg/mL	>60 µg/mL	3.75 (≈ 8.83 µM)	*60 μg/mL	>60	1.0 (≈ 2.35 µM)	>60	3.75 µg/mL (≈ 8.83 µM)	7.5 µg/mL (≈ 17.7 µM)	>60 µg/mL	>60

More lines, main results first:

Minimum inhibitory concentration (MIC) E. coli [1] [µg/mL]	Minimum inhibitory concentration (MIC) E. coli NCTC 8196 [1] [µg/mL]	Minimum inhibitory concentration (MIC) S. hominis [2] [µg/mL]	Minimum inhibitory concentration (MIC) Aspergillus niger ATCC 6275 [3]	Minimum inhibitory concentration (MIC) Candida albicans ATCC 10231 [4]	Minimum inhibitory concentration (MIC) Enterococcus hirae ATCC 10541 [5] [µg/mL]	Minimum inhibitory concentration (MIC) Epidermophyton floccosum DSM 10709 [6]	Minimum inhibitory concentration (MIC) Klebsiella pneumonia ATCC 4352 [7] [µg/mL]	Minimum inhibitory concentration (MIC) Micrococcus luteus ATCC 9341 [8] [µg/mL]	Minimum inhibitory concentration (MIC) Pseudomonas aeruginosa CIP A-22 [9] [µg/mL]	Minimum inhibitory concentration (MIC) S. epidermidis ATCC 12228 [10]	Minimum inhibitory concentration (MIC) Staphylococcus aureus ATCC 9144 [12]	Minimum inhibitory concentration (MIC) Trichophyton mentagrophytes ATCC 9533 [13]	SMILES	Minimum inhibitory concentration (MIC) Salmonella choleraesuis ATCC 10708 [11] [µg/mL]
120 (≈ 336 µM)	>60	30 (≈ 83.9 µM)	>60 µg/mL	>60 µg/mL	>60	>60 µg/mL	>60	>60	>60	>60 µg/mL	>60 µg/mL	>60 µg/mL	COCCc1cc(NCCCCCCCCN)nc(-c2ccccn2)n1 [compound 77]	>60
60 (≈ 161 µM)	>60	15 (≈ 40.4 µM)	>60 µg/mL	>60 µg/mL	>60	>60 µg/mL	>60	>60	>60	*60 μg/mL	*60 μg/mL	>60 µg/mL	COCCc1cc(NCCCCCCCCCN)nc(-c2ccccn2)n1 [compound 78]	>60
>120	>60	3.75 (≈ 10.2 µM)	30 µg/mL (≈ 81.4 µM)	15 µg/mL (≈ 40.7 µM)	7.5 (≈ 20.3 µM)	15 µg/mL (≈ 40.7 µM)	60 (≈ 163 µM)	1.9 (≈ 5.16 µM)	>60	7.5 µg/mL (≈ 20.3 µM)	7.5 µg/mL (≈ 20.3 µM)	*7.5 μg/mL	CCCCCCCCCCCNc1nc(-c2ccccn2)nc(C)c1CC [compound 89]	>60
>120	120 (≈ 326 µM)	3.75 (≈ 10.2 µM)	>60 µg/mL	30 µg/mL (≈ 81.4 µM)	1.9 (≈ 5.16 µM)	15 µg/mL (≈ 40.7 µM)	120 (≈ 326 µM)	<0.5	>120	1.9 µg/mL (≈ 5.16 µM)	1.9 µg/mL (≈ 5.16 µM)	>60 µg/mL	CCCCCCCCCCCNc1cc(C(C)C)nc(-c2ccccn2)n1 [compound 98]	>120
